Test results from ChEMBL document CHEMBL4680208, “Sulfone derivatives enter the cytoplasm of Candida albicans sessile cells” (Eur J Med Chem, 2020).
In brackets after ≈: the same amount, converted by molar mass. Activity calls are given as the source filed them. The calls are words filed in the database; no cut-off is given here.

Experiments:
[1] = Drug uptake in Galleria mellonella larvae assessed as increase in fluorescence between cell wall and muscle layer measured after 2 hrs by fluorescence assay; type: ADME
Candida albicans [2] = assay: Antifungal activity against Candida albicans 90028 assessed as fungal growth inhibition at 16 ug/ml measured after 18 hrs by microdilution method relative to control; type: functional; conditions: read-out: GI
Candida albicans [3] = assay: Antifungal activity against Candida albicans 90028 assessed as fungal growth inhibition at 8 ug/ml measured after 18 hrs by microdilution method relative to control; type: functional; conditions: read-out: GI
Candida albicans [4] = assay: Antifungal activity against Candida albicans 90028 assessed as fungal growth inhibition at 4 ug/ml measured after 18 hrs by microdilution method relative to control; type: functional; conditions: read-out: GI
Candida albicans [5] = assay: Antifungal activity against Candida albicans 90028 assessed as fungal growth inhibition at 2 ug/ml measured after 18 hrs by microdilution method relative to control; type: functional; conditions: read-out: GI
Candida albicans [6] = assay: Antifungal activity against Candida albicans 90028 assessed as fungal growth inhibition at 1 ug/ml measured after 18 hrs by microdilution method relative to control; type: functional; conditions: read-out: GI
Candida albicans [7] = assay: Antifungal activity against Candida albicans 90028 assessed as fungal growth inhibition at 0.5 ug/ml measured after 18 hrs by microdilution method relative to control; type: functional; conditions: read-out: GI
Candida albicans [8] = assay: Antifungal activity against Candida albicans 90028 assessed as fungal growth inhibition at 0.25 ug/ml measured after 18 hrs by microdilution method relative to control; type: functional; conditions: read-out: GI
Candida albicans [9] = assay: Antifungal activity against Candida albicans 90028 assessed as fungal growth inhibition at 0.125 ug/ml measured after 18 hrs by microdilution method relative to control; type: functional; conditions: read-out: GI
Candida albicans [10] = assay: Antifungal activity against Candida albicans 90028 assessed as fungal growth inhibition at 0.0625 ug/ml measured after 18 hrs by microdilution method relative to control; type: functional; conditions: read-out: GI
Candida albicans [11] = assay: Antifungal activity against Candida albicans 90028 assessed as fungal growth inhibition at 0.0313 ug/ml measured after 18 hrs by microdilution method relative to control; type: functional; conditions: read-out: GI
Candida albicans [12] = assay: Antifungal activity against Candida albicans 90028 assessed as fungal growth inhibition at 16 ug/ml measured after 48 hrs by microdilution method relative to control; type: functional; conditions: read-out: GI
Candida albicans [13] = assay: Antifungal activity against Candida albicans 90028 assessed as fungal growth inhibition at 8 ug/ml measured after 48 hrs by microdilution method relative to control; type: functional; conditions: read-out: GI
Candida albicans [14] = assay: Antifungal activity against Candida albicans 90028 assessed as fungal growth inhibition at 4 ug/ml measured after 48 hrs by microdilution method relative to control; type: functional; conditions: read-out: GI
Candida albicans [15] = assay: Antifungal activity against Candida albicans 90028 assessed as fungal growth inhibition at 2 ug/ml measured after 48 hrs by microdilution method relative to control; type: functional; conditions: read-out: GI
Candida albicans [16] = assay: Antifungal activity against Candida albicans 90028 assessed as fungal growth inhibition at 1 ug/ml measured after 48 hrs by microdilution method relative to control; type: functional; conditions: read-out: GI
Candida albicans [17] = assay: Antifungal activity against Candida albicans 90028 assessed as fungal growth inhibition at 0.5 ug/ml measured after 48 hrs by microdilution method relative to control; type: functional; conditions: read-out: GI
Candida albicans [18] = assay: Antifungal activity against Candida albicans 90028 assessed as fungal growth inhibition at 0.25 ug/ml measured after 48 hrs by microdilution method relative to control; type: functional; conditions: read-out: GI
Candida albicans [19] = assay: Antifungal activity against Candida albicans 90028 assessed as fungal growth inhibition at 0.125 ug/ml measured after 48 hrs by microdilution method relative to control; type: functional; conditions: read-out: GI
Candida albicans [20] = assay: Antifungal activity against Candida albicans 90028 assessed as fungal growth inhibition at 0.0625 ug/ml measured after 48 hrs by microdilution method relative to control; type: functional; conditions: read-out: GI
Candida albicans [21] = assay: Antifungal activity against Candida albicans 90028 assessed as fungal growth inhibition at 0.0313 ug/ml measured after 48 hrs by microdilution method relative to control; type: functional; conditions: read-out: GI
Candida albicans [22] = assay: Fungicidal activity against Candida albicans 90028 preincubated for 48 hrs followed by plating on SD agar and measured after 48 hrs; type: functional; conditions: time 96 hrs
Candida albicans [23] = assay: Antifungal activity against Candida albicans 90028 infected in Galleria mellonella larvae assessed as increase in larvae survival at MFC measured 96 hrs post-infection relative to control; type: functional
[24] = Cytotoxicity against African green monkey Vero cells by XTT assay; type: cell-based; conditions: chlorocebus sabaeus
[25] = Cytotoxicity against human MRC5 cells by CellTiter 96 Aqueous One Solution Reagent based assay; type: cell-based
[26] = Toxicity in Galleria mellonella larvae assessed as survival at 16 ug/ml relative to control; conditions: at 16 µg/mL
[27] = Drug uptake in Galleria mellonella larvae assessed as increase in fluorescence near the proventriculus measured after 2 hrs by fluorescence assay; type: ADME
Candida albicans [28] = assay: Antifungal activity against Candida albicans 90028 infected in Galleria mellonella larvae at 16 ug/ml by H and E staining based histological analysis; type: functional, organism-based; conditions: dose 16.0 µg/ml
Candida albicans [29] = assay: Induction of plasma membrane permeabilization in Candida albicans infected in human MRC5 cells at 16 ug/ml measured after 18 hrs by propidium iodide staining based confocal laser scanning microscopy; type: functional, organism-based; conditions: dose 16.0 µg/ml
Candida albicans [30] = assay: Induction of plasma membrane permeabilization in Candida albicans infected in human TR146 cells at 16 ug/ml measured after 18 hrs by propidium iodide staining based confocal laser scanning microscopy; type: functional, organism-based; conditions: dose 16.0 µg/ml
Candida albicans [31] = assay: Induction of cell demise in Candida albicans infected in human TR146 cells at 16 ug/ml measured after 18 hrs by AO/propidium iodide staining based confocal laser scanning microscopy; type: functional, organism-based; conditions: dose 16.0 µg/ml
Candida albicans [32] = assay: Induction of cell demise in Candida albicans infected in human MRC5 cells at 16 ug/ml measured after 18 hrs by AO/propidium iodide staining based confocal laser scanning microscopy; type: functional, organism-based; conditions: dose 16.0 µg/ml
Candida albicans [33] = assay: Antifungal activity against Candida albicans 90028 assessed as fungal growth inhibition measured after 48 hrs by microdilution method; type: functional
Vero = assay: Cytotoxicity against African green monkey Vero cells at 0.25 to 16 ug/ml by XTT assay relative to control; type: cell-based; conditions: chlorocebus sabaeus, at 0.25 to 16 µg/mL, dose 0.25-16 µg/ml
Candida albicans [34] = assay: Induction of plasma membrane disruption in Candida albicans assessed as accidental type cell death at 8 ug/ml measured after 18 hrs by Annexin V-FITC/propidium iodide staining based flow cytometry (reference value: 1.74 +/- 1.37%); conditions: dose 8.0 µg/ml
Candida albicans [35] = assay: Anti-adhesive activity against Candida albicans assessed as reduction in […] adhesion to human TR146 cells at 8 ug/ml incubated for 2 hrs prior to cell infection and measured after 2 hrs by colony counting method relative to control; type: functional; set-up: scale not given: the % may be the effect or the level left; conditions: dose 8 µg/ml; time 4 hrs
[36] = Induction of adhesive activity against Candida albicans assessed as increase in […] adhesion to human TR146 cells at 4 ug/ml incubated for 2 hrs prior to cell infection and measured after 2 hrs by colony counting method relative to control; type: cell-based; conditions: tr146, 4 h, dose 4 µg/ml
Candida albicans [37] = assay: Antibiofilm activity against Candida albicans 90028 assessed as cell killing at 256 ug/ml by XTT assay relative to control; type: functional; conditions: dose 256 µg/ml
Candida albicans [38] = assay: Antibiofilm activity against Candida albicans 90028 assessed as increasing in cell killing by XTT assay; type: functional

SMILES | Drug uptake [1] | inhibition of growth at 16 µg/mL (Candida albicans [2]) | inhibition of growth at 8 µg/mL (Candida albicans [3]) | inhibition of growth at 4 µg/mL (Candida albicans [4]) | inhibition of growth at 2 µg/mL (Candida albicans [5]) | inhibition of growth at 1 µg/mL (Candida albicans [6]) | inhibition of growth at 0.5 µg/mL (Candida albicans [7]) | inhibition of growth at 0.25 µg/mL (Candida albicans [8]) | inhibition of growth at 0.125 µg/mL (Candida albicans [9]) | inhibition of growth at 0.0625 µg/mL (Candida albicans [10]) | inhibition of growth at 0.0313 µg/mL (Candida albicans [11]) | inhibition of growth at 16 µg/mL (Candida albicans [12]) | inhibition of growth at 8 µg/mL (Candida albicans [13]) | inhibition of growth at 4 µg/mL (Candida albicans [14]) | inhibition of growth at 2 µg/mL (Candida albicans [15]) | inhibition of growth at 1 µg/mL (Candida albicans [16]) | inhibition of growth at 0.5 µg/mL (Candida albicans [17]) | inhibition of growth at 0.25 µg/mL (Candida albicans [18]) | inhibition of growth at 0.125 µg/mL (Candida albicans [19]) | inhibition of growth at 0.0625 µg/mL (Candida albicans [20]) | other results
O=Cc1ccc(C2=C3C=CC=[N+]3[B-](F)(F)n3cccc32)cc1 | Active |  |  |  |  |  |  |  |  |  |  |  |  |  |  |  |  |  |  |  | 
O=[N+]([O-])c1cc(S(=O)(=O)C(Cl)(Cl)Br)ccc1N/N=C\c1ccc(C2=C3C=CC=[N+]3[B-](F)(F)n3cccc32)cc1 | Active | 100% | 100% | 100% | 100% | 100% | 100% | 100% | 99.7% | 99.8% | 99.7% | 100% | 100% | 100% | 100% | 100% | 100% | 100% | 99.7% | 99.8% | inhibition of growth at 0.0313 µg/mL (Candida albicans [21]): 99.7%; MFC (Candida albicans [22]): ≥ 16 µg/mL; Activity (Candida albicans [23]): 61.47%; CC50 [24]: ≥ 8 µg/mL; CC50 [25]: ≥ 256 µg/mL; survival [26]: 93%; Drug uptake [27]: Active; Activity (Candida albicans [28]): Active; Activity (Candida albicans [29]): Active; Activity (Candida albicans [30]): Active; Activity (Candida albicans [31]): Active; Activity (Candida albicans [32]): Active
NNc1ccc(S(=O)(=O)C(F)(F)I)cc1[N+](=O)[O-] |  | 100% | 100% | 100% | 100% | 100% | 99.7% | 100% | 73.7% | 100% | 88.2% | 100% | 100% | 74.9% | 72.8% | 72.9% | 70.1% | 69.5% | 22.9% | 15.5% | inhibition of growth at 0.0313 µg/mL (Candida albicans [21]): 22%; MIC90 (Candida albicans [33]): 8 µg/mL (≈ 20.4 µM); MFC (Candida albicans [22]): 8 µg/mL (≈ 20.4 µM); Activity (Vero): 12.54%; CC50 [24]: ≥ 32 µg/mL; CC50 [25]: ≥ 16 µg/mL; survival [26]: 100%; Activity (Candida albicans [28]): inactive; Activity (Candida albicans [34]): 74.8%; Activity (Candida albicans [35]): 100%; fold change (FC) [36]: 13.78; Activity (Candida albicans [37]): 40%; CC50 (Candida albicans [38]): ≤ 64 µg/mL
